Measurements reported in patent US20100331183A1, “AGENT FOR IMPROVING GOOD RICE SEEDLING GROWTH” (COSMO OIL CO., LTD, priority 2008, published 2010).

Assays:
rice seedlings [1] = assay: Effect of improving the growth of rice seedlings - 1 (soil irrigation in seedling box, harvest 33 days from sowing); format: in vivo, rice (koshihikari variety)
Protocol: 450 g/pot of soil was placed in a seedling box (the area was 1/120,000×10 a). The soil used was a purchased volcanic ash soil (andosol). […] Fertilizer application was carried out using a liquid fertilizer, Hyponica, at a rate of 3 kg-N/10 a. […] After 29 days from sowing, additional fertilizer application was carried out using a liquid fertilizer, Hyponica, at a rate of 3 kg-N/10 a. After 33 days from sowing, the plant bodies were harvested, and the fresh weight (roots) and the tillering number were measured.

rice seedlings [2] = assay: Verification of effect: treated seedlings transplanted into paddy field pot, harvest after three weeks; format: in vivo; conditions: 3 weeks after transplantation into paddy field pot; treated upon raising seedlings: 5-aminolevulinic acid hydrochloride 120 mg/10a and/or inabenfide 1200 g/10a; n = 3
Protocol: 450 g/pot of soil was placed in a seedling box (the area was 1/120,000×10 a). The soil used was a purchased volcanic ash soil (andosol). Rice seeds which had been subjected to brine grading using a brine having a specific gravity of 1.13, and had been germinated, were sowed at a rate of 15 seeds/pot, and the seeds were covered with soil at a depth of 1 to 2 cm (50 g/pot). Fertilizer application was carried out using a liquid fertilizer, Hyponica, at a rate of 5 kg-N/10 a. For each of the test zones (n=4), the soil was irrigated with combinations of inabenfide in an amount of treatment of 1,200 or 300 g/10 a, and 5-aminolevulinic acid hydrochloride in an amount of treatment of 600, 200 or 120 mg/10 a. After 22 days from sowing, the plant bodies were harvested, and the fresh weight (roots), the tillering number, the stem thickness and the chlorophyll content (SPAD value) were measured. The results for the fresh weight of roots and the tillering number under various conditions are presented in Table 6, and the results for the stem thickness and the chlorophyll content (SPAD value) under various conditions are presented in Table 7.
Seedlings were raised in the same manner as in Example 2. In regard to the treatment concentration upon raising seedlings, the treatment was carried out using 5-aminolevulinic acid hydrochloride at a concentration of 120 (mg/10 a) and inabenfide at a concentration of 1,200 (g/10 a). After the seedlings were raised, the roots of four seedlings were evenly cut to 2 cm, and the seedlings were transplanted into a pot simulating the state of paddy field. After three weeks from the transplantation into the pot simulating the state of paddy field, the plant bodies were harvested, and the dry weights of the aerial part and the root part, and the tillering number were measured. The various treatment conditions employed upon raising the seedlings, and the measurement values obtained after 3 weeks from the transplantation into paddy field pot are presented in Table 8.

rice seedlings [3] = assay: Effect of improving rice seedling growth - 2 (soil irrigation in seedling box, harvest 22 days from sowing); format: in vivo; conditions: for SPAD value (chlorophyll content) / Stem thickness: 5-aminolevulinic acid hydrochloride 600 mg/10 a and/or inabenfide 300 g/10 a, n = 15 to 17
Protocol: 450 g/pot of soil was placed in a seedling box (the area was 1/120,000×10 a). The soil used was a purchased volcanic ash soil (andosol). […] Fertilizer application was carried out using a liquid fertilizer, Hyponica, at a rate of 5 kg-N/10 a. […] The results for the fresh weight of roots and the tillering number under various conditions are presented in Table 6, and the results for the stem thickness and the chlorophyll content (SPAD value) under various conditions are presented in Table 7.

[4] = 5-aminolevulinic acid hydrochloride 200 mg/10 a and/or paclobutrazole 90 g/10 a
[5] = 5-aminolevulinic acid hydrochloride 120 mg/10 a, inabenfide 0
[6] = 5-aminolevulinic acid hydrochloride 200 mg/10 a, inabenfide 0
[7] = 5-aminolevulinic acid hydrochloride 600 mg/10 a, inabenfide 0
[8] = 5-aminolevulinic acid hydrochloride 200 mg/10 a and/or inabenfide 1200 g/10 a
[9] = 5-aminolevulinic acid hydrochloride 200 mg/10 a and/or prohexadione calcium salt 15 g/10 a
[10] = 5-aminolevulinic acid hydrochloride 200 mg/10 a and/or trinexapac-ethyl 1.25 g/10 a
[11] = 5-aminolevulinic acid hydrochloride 200 mg/10 a and/or uniconazole P 30 g/10 a
[12] = 5-aminolevulinic acid hydrochloride 200 mg/10 a and/or uniconazole P 30 g/10 a, n=4 zones
[13] = inabenfide 300 g/10 a, 5-aminolevulinic acid hydrochloride 0
[14] = inabenfide 1200 g/10 a, 5-aminolevulinic acid hydrochloride 0

Row | Compound | Average tillering number per plant body (rice seedlings [1]; [4]) | Fresh weight of roots (rice seedlings [1]; [4]) | Average tillering number per plant body (rice seedlings [2]) | Degree of sturdiness (dry weight/height for shoots) (rice seedlings [2]) | Dry weight of roots (rice seedlings [2]) | Dry weight of shoots (rice seedlings [2]) | Fresh weight of shoots (rice seedlings [2]) | SPAD value (chlorophyll content) (rice seedlings [3]) | Stem thickness (rice seedlings [3]) | Average tillering number per plant body (rice seedlings [1]; [8]) | Fresh weight of roots (rice seedlings [1]; [8]) | Fresh weight of roots (rice seedlings [1]; [9]) | Average tillering number per plant body (rice seedlings [1]; [10]) | Fresh weight of roots (rice seedlings [1]; [10]) | Average tillering number per plant body (rice seedlings [1]; [11]) | Fresh weight of roots (rice seedlings [1]; [12]) | other results
1 | CC(C)(C)[C@@H](O)[C@@H](Cc1ccc(Cl)cc1)n1cncn1 (racemic) [Paclobutrazole, (2RS,3RS)-1-(4-chlorophenyl)-4,4-dimethyl-2-(1H-1,2,4-triazol-1-yl)pentan-3-ol] | 0.80 | 0.29 g | – | – | – | – | – | – | – | – | – | – | – | – | – | – | –
2 | Cl.NCC(=O)CCC(=O)O [5-aminolevulinic acid hydrochloride] | 0.00 | 0.29 g | 6.7 | 0.052 g/cm | 1.0 g | 3.2 g | 14.1 g | 28.70 | 0.429 cm | 0.00 | 0.29 g | 0.29 g | 0.00 | 0.29 g | 0.00 | 0.29 g | Average tillering number per plant body (rice seedlings [3]; [5]): 0.03; Fresh weight of roots (rice seedlings [3]; [5]): 0.35 g; Average tillering number per plant body (rice seedlings [3]; [6]): 0.01; Fresh weight of roots (rice seedlings [3]; [6]): 0.36 g; Average tillering number per plant body (rice seedlings [3]; [7]): 0.00; Fresh weight of roots (rice seedlings [3]; [7]): 0.35 g
3 | O=C(Nc1ccc(Cl)cc1C(O)c1ccccc1)c1ccncc1 (stereo not drawn) [Inabenfide] | – | – | 8.0 | 0.060 g/cm | 1.1 g | 3.6 g | 15.8 g | 29.23 | 0.415 cm | 0.19 | 0.34 g | – | – | – | – | – | Average tillering number per plant body (rice seedlings [3]; [13]): 0.11; Fresh weight of roots (rice seedlings [3]; [13]): 0.35 g; Average tillering number per plant body (rice seedlings [3]; [14]): 0.41; Fresh weight of roots (rice seedlings [3]; [14]): 0.35 g
4 | CCC(=O)C1=C([O-])CC(C(=O)[O-])CC1=O.[Ca+2] (stereo not drawn) [Prohexadione calcium salt, calcium 3-oxido-5-oxo-4-propionyl-3-cyclohexene carboxylate] | – | – | – | – | – | – | – | – | – | – | – | 0.32 g | – | – | – | – | –
5 | CCOC(=O)C1CC(=O)C(=C(O)C2CC2)C(=O)C1 (stereo not drawn) [Trinexapac-ethyl, ethyl=4-cyclopropyl-α-hydroxymethylene)-3,5-dioxocyclohexane carboxylate] | – | – | – | – | – | – | – | – | – | – | – | – | 0.00 | 0.23 g | – | – | –
6 | CC(C)(C)[C@H](O)/C(=C\c1ccc(Cl)cc1)n1cncn1 [Uniconazole P, (E)-(S)-1-(4-chlorophenyl)-4,4-dimethyl-2-(1H-1,2,4-triazol-1-yl)pent-1-en-3-ol] | – | – | – | – | – | – | – | – | – | – | – | – | – | – | 0.86 | 0.28 g | –
